Results on one molecule are retold here after patent US20260108463A1, “NANOEMULSION FORMULATION WITH IMPROVED TACROLIMUS STABILITY AND SKIN PENETRATION” (BIOFRONTERA BIOSCIENCE GMBH, priority 2023, published 2026).

For data set [1] the following is noted: cited from earlier work.
Data set [2] can be described thus: Solubility test of tacrolimus by visual observation. In kind it is physicochemical. The note with it: aqueous nanoemulsion BF200 (at least 90% water content), aqueous with cosolvent or surfactant or cyclodextrin. As to the method: Tacrolimus was dissolved by mechanical techniques (stirring). Determination of a complete solution of substance was based on visual observation. A complete dissolution was defined as a clear solution with no signs of cloudiness or precipitation. The pure solvents were used as reference.
Samples were prepared as explained in Example D. The compound was dissolved in 10 mM Phosphate buffer (TC2) at defined concentration (see table below). For samples TC3, TC4 and TC5 the lipid phase (intermediate) of nanoemulsion BF200 was used as solvent. In a first step, Tacrolimus was dissolved in the lipid phase, followed by the preparation of the nanoemulsion by combining the aqueous phase with the lipid phase (containing Tacrolimus). Samples TC4 and TC5 were stored at 5° C. and 25° C. for a period of 6 months.

The conditions of data set [3]: cited from earlier work. This is another data set of the same source.

Where two headings read alike, the source gives them in different places.

For orientation: solubility means the dissolved amount per volume that the medium holds. Higher therefore signals much dissolved substance. What is called logP is a log measure of how a compound divides between an organic and an aqueous phase. For `C=CC[C@@H]1/C=C(\C)C[C@H](C)C[C@H](OC)[C@H]2O[C@@](O)(C(=O)C(=O)N3CCCC[C@H]3C(=O)O[C@H](/C(C)=C/[C@@H]3CC[C@@H](O)[C@H](OC)C3)[C@H](C)[C@@H](O)CC1=O)[C@H](C)C[C@@H]2OC` [Tacrolimus], the “Stability in aqueous formulations” value in data set [1] (5° C., prior-art aqueous formulations (suspensions)) is “up to 9 months”; in data set [1] (room temperature, prior-art aqueous formulations (suspensions)) it was “approx. 3 months”; in data set [1] (room temperature, prior-art aqueous formulations), “approx. 90 days”. For the same molecule, the solubility in data set [2] was no less than 2000 µg/mL. The logP in data set [3] is listed as greater than 3.
